Measured values as given in patent publication US11617804B2, “Hyaluronic acid-based nanoparticles as biosensors for imaging-guided surgery and drug delivery vehicles and methods associated therewith” (Wake Forest University, priority 2014, dated 2023).

Legend:
ectopic 4T1 breast tumor = assay: ICG detection in tumor with the fluorescence image-guided surgical system; format: in vivo, mouse; conditions: 0.357 mg/kg ICG via tail vein, 24 hours, laser excitation directed at the tumor
Procedure: In this experiment, 0.357 mg/kg ICG was systemically administered via a tail vein. After 24 hours, the mouse was euthanized and tumor fluorescence enhancement was assessed by using the fluorescence image-guided surgical system method. When the laser excitation source of fluorescence image-guided surgical system method is directed off the tumor (FIG. 9A,B), no fluorescence enhancement of the tumor is seen. […] This example uses a breast tumor model.

MDA-MB-231 tumors = assay: In vivo testing, MDA-MB-231-iRFP xenograft: imaging, image-guided tumor removal, relative biodistribution; design: species or system female nude mice; conditions: I.V. injection of 10 nmol ICG (free or fHNP), 24 hours
Procedure: Twelve to fourteen week old female nude mice (Jackson Labs) were injected subcutaneously with 2×10^6) MDA-MB-231 cells in 50/50 media/matrigel. MDA-MB-231 cells were transfected with NIR fluorescent protein (iRFP). When the tumors reached 500-1000 mm^3, 10 nmol ICG or fHNP (10 wt % PBA was the hydrophobic ligand in this case) was injected into a tail vein. After 24 hours the mice were euthanized and imaged whole using a LI-COR Pearl Impulse system, which has a “700 nm” channel that can detect iRFP-labeled cell and an “800 nm” channel that can detect ICG or Cy7.5. Mice then underwent image-guided tumor removal with the fluorescence image-guided surgical system method. First, skin was removed to expose the breast tumor xenograft. […] Mice were then re-imaged on the LI-COR system to compare area identified as tumor by the fluorescence image-guided surgical system with iRFP labeled tumors. This was followed by necropsy, further image acquisition for the overall estimation of relative ICG biodistribution, and preparation of tissues for histology.

How did the Tumor fluorescence enhancement (ectopic 4T1 breast tumor) turn out when `CC1(C)C(/C=C/C=C/C=C/C=C2\N(CCCCS(=O)(=O)O)c3ccc4ccccc4c3C2(C)C)=[N+](CCCCS(=O)(=O)[O-])c2ccc3ccccc3c21` [ICG, Indocyanine green] was run?
The Tumor fluorescence enhancement was “strong fluorescence signal”.

What about the Tumor signal enhancement (MDA-MB-231 tumors) of the same compound?
The Tumor signal enhancement was “tumor signal enhancement”.
